Legend:
Assay in all cases: Competitive affinity-based chemoproteomics (UNC0965 matrix), PBMC cell extract
Format in all cases: binding
CPSF6 = biological target: T1, CPSF6 (Homo sapiens, UniProt Q16630); conditions: 20 µM competitor, n=2
T1 construct: endogenous in cells; host or cells: PBMC from healthy blood donors, cell extract
Protocol: (§1) described.[2] Lysates were precleared with bead slurry (100 μL) for 30 min at 4 °C and then treated with UNC0638 or UNC0737 (20 μM) or DMSO control for 30 min at 4 °C followed by incubation with affinity matrix for 2 h at 4 °C. Affinity matrices were washed with buffer A (5 mL) and proteins eluted with 100 μL of 2x Laemmli sample buffer, 100 mM DTT, in PBS and heating for 10 min at 90 °C.
(§2) Eluents (70 µL) were diluted in 0.1 M Tris (pH 7.8) to 200 µL, reduced with 5 mM DTT for 30 min at RT, and alkylated with 20 mM iodoacetamide for 30 min at RT in the dark. Proteins were precipitated by sequential addition of MeOH (600 µL), CHCl3 (150 µL) and H2O (450 µL), pelleted (17,000 × g, 5 min), washed with further MeOH (2 × 600 µL), and re-pelleted. Air dried pellets were resuspended in 50 μL 6 M urea (pH 7.8) by vortexing and then diluted with 250 μL H2O before adding 1 µg trypsin for overnight incubation at 37 °C. The digests were acidified with FA (1% v/v final concentration), desalted using SOLA HRP SPE Cartridges (Thermo Fisher), eluted with 69% v/v MeCN, 0.1% v/v FA in H2O (600 μL) and dried in vacuo. Dried peptides were stored at -20 °C before resuspension in 2% v/v MeCN, 0.1% v/v FA in H2O (20 μL) for LC-MS/MS analysis.
(§3) LC-MS/MS Data Acquisition
(§4) Digested samples were analysed by nano-UPLC–MS/MS using a Dionex Ultimate 3000 nano UPLC fitted with an EASY spray column (75 μm × 500 mm, 2 μm particle size, Thermo Scientific), coupled to an Orbitrap Q Exactive instrument. A 60 min gradient of 0.1% (v/v) formic acid in 5 % (v/v) DMSO to 0.1% (v/v) formic acid with 35% (v/v) acetonitrile in 5 % (v/v) DMSO at a flow rate of 250 nL min−1 was used. The instrument was operated in a data-dependant mode, with survey scans acquired at a resolution of 70,000 at 200 m/z and the 15 most abundant precursors selected for HCD fragmentation with an AGC target of […] ions.
(§5) Raw data was processed using MaxQuant[3] version 2.0.1.0 and the reference complete human proteome FASTA file (UniProt, downloaded 05.08.21). Label Free Quantification (LFQ) and Match Between Runs were selected; Cysteine carbamidomethylation was selected as a fixed modification, and methionine oxidation and asparagine deamidation as variable modifications. Default settings for identification and quantification were used. Specifically, a minimum peptide length of 7, a maximum of 2 missed cleavage sites, and a maximum of 5 labelled amino acids per peptide were allowed.
(§6) Through selection of the ‘trypsin/P’ general setting, peptide bond cleavage at arginine or lysine (followed by any amino acid) was considered during in silico digest of the reference proteome. The allowed precursor and fragment ion mass tolerances were 4.5 ppm and 20 ppm, respectively. Peptides and proteins were identified utilizing a 0.01 false discovery rate, with “unique and razor peptides” […]
(§7) mode selected for both identification and quantification of proteins (razor peptides are uniquely assigned to protein groups and not to individual proteins).

EHMT1 = biological target: T2, EHMT1 (Homo sapiens, UniProt Q9H9B1); conditions: 20 µM competitor; for FC vs DMSO (log2 competition), EHMT1: n=2
T2 construct: endogenous in cells; host or cells: PBMC from healthy blood donors, cell extract
T2 sequence (Q9H9B1 1-1298): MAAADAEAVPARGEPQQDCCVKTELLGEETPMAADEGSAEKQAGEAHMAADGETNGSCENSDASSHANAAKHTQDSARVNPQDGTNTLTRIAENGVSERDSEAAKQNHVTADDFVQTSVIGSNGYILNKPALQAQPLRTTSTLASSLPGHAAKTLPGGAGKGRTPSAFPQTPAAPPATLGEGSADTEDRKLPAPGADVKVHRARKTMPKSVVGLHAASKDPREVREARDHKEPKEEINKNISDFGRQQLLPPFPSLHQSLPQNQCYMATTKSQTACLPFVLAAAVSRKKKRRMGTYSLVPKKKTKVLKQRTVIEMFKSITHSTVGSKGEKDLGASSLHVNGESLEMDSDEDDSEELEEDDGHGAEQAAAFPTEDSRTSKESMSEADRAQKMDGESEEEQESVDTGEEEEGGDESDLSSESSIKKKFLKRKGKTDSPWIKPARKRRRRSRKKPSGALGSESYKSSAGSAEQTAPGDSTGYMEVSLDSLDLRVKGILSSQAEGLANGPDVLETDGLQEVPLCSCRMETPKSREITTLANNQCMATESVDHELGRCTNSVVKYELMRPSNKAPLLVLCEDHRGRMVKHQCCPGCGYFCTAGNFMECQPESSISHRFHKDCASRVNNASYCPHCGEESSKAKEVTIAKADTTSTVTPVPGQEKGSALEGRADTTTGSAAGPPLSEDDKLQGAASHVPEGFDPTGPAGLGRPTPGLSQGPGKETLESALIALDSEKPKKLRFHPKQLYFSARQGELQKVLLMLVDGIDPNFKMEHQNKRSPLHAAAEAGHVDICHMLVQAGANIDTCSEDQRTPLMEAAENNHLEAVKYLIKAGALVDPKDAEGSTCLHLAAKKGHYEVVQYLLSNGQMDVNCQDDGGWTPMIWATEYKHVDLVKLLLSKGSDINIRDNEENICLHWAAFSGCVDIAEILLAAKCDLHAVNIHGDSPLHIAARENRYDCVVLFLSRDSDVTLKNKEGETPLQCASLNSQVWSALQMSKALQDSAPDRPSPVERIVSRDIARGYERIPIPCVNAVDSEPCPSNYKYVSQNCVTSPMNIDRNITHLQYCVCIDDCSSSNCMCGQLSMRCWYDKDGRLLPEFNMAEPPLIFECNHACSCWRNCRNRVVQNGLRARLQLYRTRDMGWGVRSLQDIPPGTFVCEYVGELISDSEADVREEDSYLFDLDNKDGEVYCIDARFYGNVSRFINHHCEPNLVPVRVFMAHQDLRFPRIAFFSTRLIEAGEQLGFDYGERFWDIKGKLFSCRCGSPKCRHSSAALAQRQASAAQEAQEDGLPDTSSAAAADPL
Protocol: as §1, §2, §3, §4, §5, §6, §7

JUP = biological target: T3, JUP (Homo sapiens, UniProt P14923); conditions: 20 µM competitor, n=2
T3 construct: endogenous in cells; host or cells: PBMC from healthy blood donors, cell extract
T3 sequence (P14923 whole entry): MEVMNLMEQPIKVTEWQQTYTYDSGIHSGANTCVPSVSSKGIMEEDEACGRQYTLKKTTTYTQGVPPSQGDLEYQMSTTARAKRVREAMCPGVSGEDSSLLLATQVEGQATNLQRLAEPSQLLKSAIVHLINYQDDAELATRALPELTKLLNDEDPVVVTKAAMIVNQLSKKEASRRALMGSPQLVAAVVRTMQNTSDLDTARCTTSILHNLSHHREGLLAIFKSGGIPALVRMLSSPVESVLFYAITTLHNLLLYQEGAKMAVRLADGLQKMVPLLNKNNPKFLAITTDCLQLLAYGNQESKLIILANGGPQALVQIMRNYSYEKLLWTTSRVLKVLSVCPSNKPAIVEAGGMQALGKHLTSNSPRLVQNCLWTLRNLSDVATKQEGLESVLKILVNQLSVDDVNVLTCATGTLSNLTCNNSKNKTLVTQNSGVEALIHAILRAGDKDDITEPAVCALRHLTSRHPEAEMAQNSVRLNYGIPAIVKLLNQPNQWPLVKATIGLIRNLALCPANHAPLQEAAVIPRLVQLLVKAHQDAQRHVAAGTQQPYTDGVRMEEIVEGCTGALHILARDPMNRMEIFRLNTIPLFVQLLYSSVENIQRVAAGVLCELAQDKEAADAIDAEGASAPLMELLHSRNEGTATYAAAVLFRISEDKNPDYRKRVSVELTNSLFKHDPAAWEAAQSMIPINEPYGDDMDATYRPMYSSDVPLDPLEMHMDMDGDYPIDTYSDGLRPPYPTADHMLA
Protocol: as §1, §2, §3, §4, §5, §6, §7

T1 sequence (Q16630 whole entry): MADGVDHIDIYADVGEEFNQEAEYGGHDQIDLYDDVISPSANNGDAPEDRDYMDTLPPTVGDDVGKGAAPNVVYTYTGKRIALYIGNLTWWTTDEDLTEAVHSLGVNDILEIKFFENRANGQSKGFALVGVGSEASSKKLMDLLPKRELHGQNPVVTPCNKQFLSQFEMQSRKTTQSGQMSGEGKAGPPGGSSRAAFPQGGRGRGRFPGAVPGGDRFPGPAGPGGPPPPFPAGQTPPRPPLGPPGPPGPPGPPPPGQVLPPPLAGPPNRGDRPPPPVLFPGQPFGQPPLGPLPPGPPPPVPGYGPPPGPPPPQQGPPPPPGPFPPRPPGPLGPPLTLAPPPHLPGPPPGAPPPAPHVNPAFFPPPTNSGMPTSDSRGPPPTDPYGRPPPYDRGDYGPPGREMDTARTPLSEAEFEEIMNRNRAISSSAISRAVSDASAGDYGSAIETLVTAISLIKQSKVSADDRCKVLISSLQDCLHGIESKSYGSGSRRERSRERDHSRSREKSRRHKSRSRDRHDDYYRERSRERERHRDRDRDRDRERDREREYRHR

Compound	FC vs DMSO (log2 competition), CPSF6 (CPSF6)	EHMT1 (GLP) binding to the matrix (EHMT1)	FC vs DMSO (log2 competition), EHMT1 (EHMT1)	FC vs DMSO (log2 competition), JUP (JUP)
COc1cc2c(NC3CCN(C(C)C)CC3)nc(C3CCCCC3)nc2cc1OCCCN1CCCC1 [UNC0638]	-1.787	reduced binding to the matrix	-2.05	-1.79
COc1cc2c(N(C)C3CCN(C(C)C)CC3)nc(C3CCCCC3)nc2cc1OCCCN1CCCC1 [UNC0737]	-0.1868		0.1524	-0.7174
